Active and inactive are the calls of the source. The calls are words filed in the database; no cut-off is given here.
Tests used:
[1] = Binding affinity to DTT in PBS assessed as UV peak appearance at 288 nm at 360 uM by UV-Vis spectra analysis
BGC-823 [2] = experiment: Antiproliferative activity against human BGC-823 cells assessed as reduction in cell viability at 0.52 to 7.68 uM preincubated with NAC for 2 hrs followed by compound addition and measured after 48 hrs by MTT assay; type: functional, cell-based; settings: dose 0.52-7.68 µM
[3] = Acute toxicity in ip dosed ICR mouse assessed as effect on spleen by H and E staining based analysis; type: organism-based; settings: in vivo
[4] = Acute toxicity in ip dosed ICR mouse assessed as effect on kidney by H and E staining based analysis; type: organism-based; settings: in vivo
Cell membrane [5] = experiment: Induction of mitochondrial membrane potential loss in human BGC-823 cells assessed as increase in number of cells with J-monomers by measuring green fluorescence at 6 uM incubated for 24 hrs by JC-1 staining based flow cytometric analysis (reference value: 0.33%); type: cell membranes
[6] = Acute toxicity in ip dosed ICR mouse assessed as effect on liver by H and E staining based analysis; type: organism-based; settings: in vivo
[7] = Drug release in human BGC-823 cells assessed as increase in 4-((4-hydroxybenzoyl)oxy)butyl (4aS,6aR,6bS,8aR,12aS,14aR,14bS)-11-cyano-2,2,6a,6b,9,9,12a-heptamethyl-10,14-dioxo-1,3,4,5,6,6a,6b,7,8,8a,9,10,12a,14,14a,14b-hexadecahydropicene-4a(2H)-carboxylate concentration incubated for 4 hrs in absence of H2O2 by LC-MS analysis; type: ADME, cell-based; settings: bgc-823, 4 h
BGC-823 [8] = experiment: Induction of apoptosis in human BGC-823 cells assessed as viable cells at 1.5 uM incubated for 48 hrs by Annexin V-FITC/PI staining based flow cytometric analysis ( Rvb = 90.09 %); type: functional; settings: read-out: Activity
BGC-823 [9] = experiment: Induction of apoptosis in human BGC-823 cells assessed as late apoptotic cells at 3 uM incubated for 48 hrs by Annexin V-FITC/PI staining based flow cytometric analysis ( Rvb = 5.61 %); type: functional
BGC-823 [10] = experiment: Induction of apoptosis in human BGC-823 cells assessed as early apoptotic cells at 1.5 uM incubated for 48 hrs by Annexin V-FITC/PI staining based flow cytometric analysis ( Rvb = 1.68 %); type: functional
[11] = Toxicity in BALB/c nude mouse xenografted with human BGC-823 cells assessed as change in body weight at 5 mg/kg, ip administered for 21 days; type: organism-based; settings: in vivo, 504 h, time 21 day
BGC-823 [12] = experiment: Induction of apoptosis in human BGC-823 cells assessed as early apoptotic cells at 6 uM incubated for 48 hrs by Annexin V-FITC/PI staining based flow cytometric analysis ( Rvb = 1.68 %); type: functional
[13] = Acute toxicity in ip dosed ICR mouse assessed as lethal dose; type: organism-based; settings: in vivo
HepG2 = experiment: Antiproliferative activity against human HepG2 cells assessed as inhibition of cell proliferation incubated for 48 hrs by MTT assay; type: functional, cell-based; settings: HepG2, 48 h
BGC-823 [14] = experiment: Antitumor activity against human BGC-823 cells xenografted in BALB/c nude mouse assessed as nuclear fragmentation in tumor at 5 mg/kg, ip administered for 21 days by H and E staining based analysis; type: functional, organism-based; settings: time 21.0 day
BGC-823 [15] = experiment: Induction of apoptosis in human BGC-823 cells assessed as viable cells at 6 uM incubated for 48 hrs by Annexin V-FITC/PI staining based flow cytometric analysis ( Rvb = 90.09 %); type: functional; settings: read-out: Activity
BGC-823 [16] = experiment: Antitumor activity against human BGC-823 cells xenografted in BALB/c nude mouse assessed as nuclear condensation in tumor at 5 mg/kg, ip administered for 21 days by H and E staining based analysis; type: functional, organism-based; settings: time 21.0 day
BGC-823 [17] = experiment: Antitumor activity against human BGC-823 cells xenografted in BALB/c nude mouse assessed as increase in ROS level in tumor at 5 mg/kg, ip administered for 21 days by DHE staining based analysis; type: functional, organism-based; settings: time 21.0 day
BGC-823 [18] = experiment: Antiproliferative activity against human BGC-823 cells assessed as inhibition of cell proliferation incubated for 48 hrs by MTT assay; type: functional, cell-based; settings: BGC-823, 48 h
BGC-823 [19] = experiment: Antiproliferative activity against human BGC-823 cells assessed as inhibition of cell proliferation preincubated with H2O2 for 2 hrs followed by compound addition and measured after 48 hrs by MTT assay; type: functional, cell-based
Cell membrane [20] = experiment: Induction of mitochondrial membrane potential loss in human BGC-823 cells assessed as decrease in number of cells with J-aggregates by measuring red fluorescence at 6 uM incubated for 24 hrs by JC-1 staining based flow cytometric analysis (reference value: 99.7 %); type: cell membranes; design: scale not given: the % may be the effect or the level left
[21] = Cytotoxicity against human MCF-10A cells assessed as inhibition of cell proliferation incubated for 48 hrs by MTT assay; type: toxicity, cell-based
MCF7 = experiment: Antiproliferative activity against human MCF7 cells assessed as inhibition of cell proliferation incubated for 48 hrs by MTT assay; type: functional, cell-based; settings: MCF7, 48 h
BGC-823 [22] = experiment: Induction of apoptosis in human BGC-823 cells assessed as necrotic cells at 1.5 uM incubated for 48 hrs by Annexin V-FITC/PI staining based flow cytometric analysis ( Rvb = 1.79 %); type: functional
[23] = Acute toxicity in ip dosed ICR mouse assessed as mortality rate by measuring ratio at 1.93 logarithm of dose relative to total number of mouse; type: organism-based; settings: in vivo
BGC-823 [24] = experiment: Induction of apoptosis in human BGC-823 cells assessed as early apoptotic cells at 3 uM incubated for 48 hrs by Annexin V-FITC/PI staining based flow cytometric analysis ( Rvb = 1.68 %); type: functional
BGC-823 [25] = experiment: Antiproliferative activity against human BGC-823 cells assessed as reduction in cell viability at 0.52 to 7.68 uM preincubated with H2O2 for 2 hrs followed by compound addition and measured after 48 hrs by MTT assay; type: functional, cell-based; settings: dose 0.52-7.68 µM
BGC-823 [26] = experiment: Induction of apoptosis in human BGC-823 cells assessed as late apoptotic cells at 1.5 uM incubated for 48 hrs by Annexin V-FITC/PI staining based flow cytometric analysis ( Rvb = 5.61 %); type: functional
BGC-823 [27] = experiment: Induction of apoptosis in human BGC-823 cells assessed as late apoptotic cells at 6 uM incubated for 48 hrs by Annexin V-FITC/PI staining based flow cytometric analysis ( Rvb = 5.61 %); type: functional
[28] = Acute toxicity in ip dosed ICR mouse assessed as effect on heart by H and E staining based analysis; type: organism-based; settings: in vivo
[29] = GSH reactivity in human BGC-823 cells assessed as GSSG/GSH ratio at 2 uM incubated for 24 hrs by microplate reader analysis (reference value: 0.34); type: ADME, cell-based; settings: bgc-823, 24 h
NCI-N87 = experiment: Antiproliferative activity against human NCI-N87 cells assessed as inhibition of cell proliferation incubated for 48 hrs by MTT assay; type: functional, cell-based; settings: NCI-N87, 48 h
BGC-823 [30] = experiment: Cell cycle arrest in human BGC-823 cells assessed as accumulation of cells at G2/M phase incubated for 24 hrs by PI staining based flow cytometric analysis; type: functional
[31] = Cytotoxicity against human GES1 cells assessed as inhibition of cell proliferation incubated for 48 hrs by MTT assay; type: toxicity, cell-based
[32] = Acute toxicity in ip dosed ICR mouse assessed as effect on lung by H and E staining based analysis; type: organism-based; settings: in vivo
MGC-803 = experiment: Antiproliferative activity against human MGC-803 cells assessed as inhibition of cell proliferation incubated for 48 hrs by MTT assay; type: functional, cell-based; settings: MGC-803, 48 h
[33] = Selectivity index, ratio of IC50 for cytotoxicity against human GES1 cells to IC50 for antiproliferative activity against human BGC-823 cells in presence of H2O2; type: toxicity, cell-based; settings: GES1 cells and BGC-823 cells, read-out: Ratio IC50
BGC-823 [34] = experiment: Antitumor activity against human BGC-823 cells xenografted in BALB/c nude mouse assessed as tumor growth inhibition at 5 mg/kg, ip administered for 21 days relative to control; type: functional; settings: BGC-823, 504 h, time 21 day, read-out: TGI
SGC-7901 = experiment: Antiproliferative activity against human SGC-7901 cells assessed as inhibition of cell proliferation incubated for 48 hrs by MTT assay; type: functional, cell-based; settings: SGC-7901, 48 h
BGC-823 [35] = experiment: Induction of ROS generation in human BGC-823 cells assessed as cells with green fluorescence at 6 uM incubated for 24 hrs by DCFH-DA staining based analysis relative to control; type: functional
BGC-823 [36] = experiment: Induction of apoptosis in human BGC-823 cells assessed as viable cells at 3 uM incubated for 48 hrs by Annexin V-FITC/PI staining based flow cytometric analysis ( Rvb = 90.09 %); type: functional; settings: read-out: Activity
BGC-823 [37] = experiment: Induction of apoptosis in human BGC-823 cells assessed as necrotic cells at 6 uM incubated for 48 hrs by Annexin V-FITC/PI staining based flow cytometric analysis ( Rvb = 1.79 %); type: functional
BGC-823 [38] = experiment: Induction of apoptosis in human BGC-823 cells assessed as necrotic cells at 3 uM incubated for 48 hrs by Annexin V-FITC/PI staining based flow cytometric analysis ( Rvb = 1.79 %); type: functional
[39] = Acute toxicity in ip dosed ICR mouse assessed as animal death at 1.82 logarithm of dose; type: organism-based; settings: in vivo
[40] = Cytotoxicity against human L02 cells assessed as inhibition of cell proliferation incubated for 48 hrs by MTT assay; type: toxicity, cell-based

For `CC1(C)CC[C@]2(C(=O)OCCCCOC(=O)c3ccc(OCc4ccc(B5OC(C)(C)C(C)(C)O5)cc4)cc3)CC[C@]3(C)[C@H](C(=O)C=C4[C@@]5(C)C=C(C#N)C(=O)C(C)(C)[C@@H]5CC[C@]43C)[C@@H]2C1`, the Activity [1] was “inactive”, the Activity (BGC-823 [2]) was “inactive” and the Activity [3] was “Non-Toxic”. The Activity [4] was “Non-Toxic”, the Activity (Cell membrane [5]) was 37.1% and the Activity [6] was “Non-Toxic”. The Drug metabolism [7] was “Metabolite_Notdetected”, the viability at 1.5 µM (BGC-823 [8]) was 87.1% and the Activity (BGC-823 [9]) was 9.84%. For the same compound, the Activity (BGC-823 [10]) was 2.08%, the Activity [11] was “Non-Toxic” and the Activity (BGC-823 [12]) was 3.71%. For the same compound, the LD50 [13] was 91.2 mg/kg, the IC50 (HepG2) was 6.5 µM and the Activity (BGC-823 [14]) was “Active”. The viability at 6 µM (BGC-823 [15]) was 75.8%, the Activity (BGC-823 [16]) was “Active” and the Activity (BGC-823 [17]) was “Active”. The IC50 (BGC-823 [18]) was 2.3 µM, the IC50 (BGC-823 [19]) was 1.2 µM and the Activity (Cell membrane [20]) was 62.7%. The IC50 at 48 h [21] was 5 µM, the IC50 (MCF7) was 2.9 µM and the Activity (BGC-823 [22]) was 3.23%. The Ratio [23] was 0.17, the Activity (BGC-823 [24]) was 2.13% and the Activity (BGC-823 [25]) was “Active”. For the same compound, the Activity (BGC-823 [26]) was 7.62%, the Activity (BGC-823 [27]) was 14.9% and the Activity [28] was “Non-Toxic”. The Ratio [29] was 0.48, the IC50 (NCI-N87) was 2.5 µM and the Activity (BGC-823 [30]) was “Dose-Dependent Effect”. For the same compound, the IC50 at 48 h [31] was 4.5 µM, the Activity [32] was “Non-Toxic” and the IC50 (MGC-803) was 3.6 µM. The selectivity ratio [33] was 4, the inhibition in vivo at 5 mg/kg (BGC-823 [34]) was 86.2% and the IC50 (SGC-7901) was 3.2 µM. The Activity (BGC-823 [35]) was 35.7%, the viability at 3 µM (BGC-823 [36]) was 82.8% and the Activity (BGC-823 [37]) was 5.58%. The Activity (BGC-823 [38]) was 5.24%, the Activity [39] was “Toxic” and the IC50 at 48 h [40] was 6.5 µM.
